The record followed here is article PMC3588144 (Molecular cancer therapeutics, 2012).

Some results are limits rather than exact numbers.

Data set [1] relates to NCI-N87 xenograft. The experiment in a line: HER2 overexpressing gastric NCI-N87 xenograft model. The settings on record: 25 mg/kg i.v.; not statistically significant.
Data set [2] deals with 436 cancer cell lines. The data set is classed as cell-based, human.
Data set [3] deals with MV4-11 cells (FLT3-ITD). The class given is cell-based, human. The settings on record: 100 nmol/L for 3 hours.
Data set [4] relates to PC3 xenograft.
Data set [5] in a line: pharmacokinetics after a single oral dose. On the set-up: species or system mice. The settings on record: mouse, in vivo.
A short description of data set [6]: tolerability / maximum-tolerated dose. The data set is classed as in vivo, mice. The conditions noted are these: for maximum observed body weight loss: 14 days, male Balb/C nude mice.
In data set [7] the test system is pS6 and pAkt in COLO-205 tumor tissue. As to the kind of experiment: pharmacodynamic markers in COLO-205 tumors. The data set is classed as in vivo, mice. The conditions noted are these: 25 mg/kg, 1h after the last dose on day 17.
Data set [8] relates to pAkt(S473) and pS6(S240/244) in PC3 tumor tissue. The conditions noted are these: mouse, in vivo.

In turn, `O=c1[nH]cc(F)c(=O)[nH]1` [5-FU, 5-fluorouracil] had a tumor growth inhibition in data set [1] of 32%.

In the case of `CN(C)C/C=C/C(=O)Nc1cc2c(Nc3ccc(F)c(Cl)c3)ncnc2cc1O[C@H]1CCOC1` [BIBW2992], the “sensitivity of ERBB2-amplified cells with coincident PIK3CA mutations” value in data set [2] is reported as “did not observe increased sensitivity”.

For `CO[C@H]1C[C@@H]2CC[C@@H](C)[C@@](O)(O2)C(=O)C(=O)N2CCCC[C@H]2C(=O)O[C@H]([C@H](C)C[C@@H]2CC[C@@H](OCCO)[C@H](OC)C2)CC(=O)[C@H](C)/C=C(\C)[C@@H](O)[C@@H](OC)C(=O)[C@H](C)C[C@H](C)/C=C/C=C/C=C/1C` [Everolimus, everolimus, reference compound], the “inhibition of phosphorylation of Akt” value in data set [3] is “not able to inhibit”. Also, in data set [4] (5 mg/kg p.o. daily, 28 days), the “tumor growth inhibition (TGI)” value was 133%.

The Tmax is the time at which the peak concentration occurs. By half-life is commonly meant the time in which the quantity being followed falls by half. High values mean slow decline, low ones rapid decline. On to `Cc1nc2c(-c3cnc(N)nc3)nc(N3CCOCC3)nc2n1C(C)C` [VS-5584, 5-(9-isopropyl-8-methyl-2-morpholin-4-yl-9H-purin-6-yl)-pyrimidin-2-ylamine], for which, in data set [5], the Tmax came out at 0.9 h and the half-life was 10 h. The “maximum observed body weight loss” value in data set [6] (25 mg/kg once daily, data not shown) was 3.1%. Further, the “maximum observed body weight loss” value in data set [6] (35 mg/kg once daily, data not shown) was determined as 13.9%. Moreover, the “peripheral blood cell counts” value in data set [6] (25 and 35 mg/kg, data not shown) is recorded as “remained within normal levels without significant changes”. Moreover, the “tolerability of a single dose” value in data set [6] (single dose up to 100 mg/kg) is “well tolerated”. For the same compound, in data set [7], the “reduction of pAkt in tumor” value is reported as 85% and the “reduction of pS6 in tumor” value is 95%. In addition, in data set [8], the “pAkt(S473) blocked” value was no less than 90% and the “pS6(S240/244) blocked” value is reported as no less than 90%. For the same compound, the “weight loss (mean)” value in data set [4] (11 and 25 mg/kg, day 27) is given as 4.7%.
